Reference: patent US8609723B2 (Beijing Dingguochangsheng Biotech., Co., Ltd., priority 2008, dated 2013)

Tests used:
[1] = system: male ICR mice; assay: Tail suspension test in mice; format: in vivo; details: 18.4 mg/kg single administration, vs control group
Method: The tail suspension test was carried out for each of these groups on Days 3, 7 and 14 after administration, except that such experiment was not performed for the curcumin group on Day 14. Tails of the mice were taped on a special iron stand at 1 cm from the tips, whilst keeping the mice staying at a height of 50 cm from ground. Performance of the mice was observed within 6 min, and the accumulative immobile time within the last 4 min was recoded for each mouse.

[2] = system: male ICR mice; assay: Forced swimming test of mice; format: in vivo; details: 18.4 mg/kg single administration, vs control group
Method: The mice were forced to swim on Days 3, 7 and 14 after administration, except that such experiment was not performed for the curcumin group on Day 14.
Twenty four hours before the formal test, the mice were placed into a round glass container (height: 25 cm, diameter: 10 cm) filled with water (depth: 10 cm) with a temperature of 24±1° C., and forced to conduct swim training for 15 min. Twenty four hours later, the mice were placed into the round glass container filled with water (depth: 10 cm) again and forced to swim for 6 min. The accumulative immobile time within the last 4 min was observed and recorded for each mouse. The immobile time is intended to mean the period within which the mouse stops to struggle, floats in the water and keeps immobile, or only makes a few slight movements that are necessary to keep its head floating on the surface of water.

[3] = system: chronically stressed rats; assay: Sugar water test of rats (chronic stress model); format: in vivo; details: table title says (%)
Text: (§1) The rats in the normal control group were raised normally under a condition without any stimulation except for weighing body weight, measuring body temperature, and subjected to sugar test. All of other groups were subjected to stimulations of same type and same strength. During the experiment, different types of stimulations were applied in an unpredictable manner, and the same type of stimulation was enhanced each time.
(§2) The chronic stress course was 20 days in total, once per day, from 9:00 AM to 2:00 PM. The stress protocol was shown as follows: horizontally shaking at a high speed for 45 min; nipping tails (1 cm from the tail root): 1 min; depriving of water for 24 h; forbidding moving for 1.5 h; fasting for 24 h; stimulating with ice water (water temperature: 10° C.) for 5 min; electric shocking (1 mA, time course: is, 1 shock/min) the bottoms of feet for 30 min; changing cages and raising separately for 24 h; forbidding moving for 2 h; nipping tails (1 cm from the root of tail) for 1 min; depriving of water for 24 h; horizontally shaking at a high speed for 1.5 h; fasting for 24 h; nipping tails (1 cm from the tail root): 1 min; electric shocking (1 mA, time course: 1 s, 1 shock/min) the bottoms of feet for 40 min; stimulating with ice water for 5 min; changing cages and raising separately for 24 h; horizontally shaking at a high speed for 60 min; electric shocking (1 mA, time course: 1 s, 1 shock/min) the bottoms of feet for 50 min; depriving of water for 24 h; forbidding moving for 2.5 h; and 24 h social isolation.
Before this experiment, animals were trained to adapt to drink sugar water in a to quite room. Two bottles were placed simultaneously into each cage. For the first 24 h, these two bottles were both filled with 1% sugar water; and for the next 24 h, one of them was filled with 1% sugar water and the other was filled with pure water. Then after 23-hour water deprivation, the animals were tested for basic sugar water/pure water consumption. One bottle of 1% sugar water and one bottle of pure water were provided to each rat simultaneously. One hour later, the two bottles were weighed, and the total liquid consumption, sugar water consumption, pure water consumption, and the sugar water preference=sugar water consumption/total liquid consumption×100% were calculated, respectively. The experiment was performed after continuous administration of curcumin for 14 days.

[4] = system: chronically stressed rats; assay: Forced swimming test of rats (chronic stress model); format: in vivo; details: vs model control group
Text: as §1, §2
Please see FIG. 7. 24 hours before the formal test, rats were placed into a round glass container (height: 40 cm, diameter: 18 cm) filled with water (depth: 23 cm) with a temperature of 24±1° C., and forced to conduct swim training for 15 min. […] The accumulative immobile time within the last 4 min was observed and recorded for each rat. The immobile time is intended to mean the period within which the rat stops to struggle, floats in the water and keeps immobile, or only makes a few slight movements that are necessary to keep its head floating on the surface of water.

[5] = system: S-180 sarcoma cells; assay: Antitumor experiment of tumor S-180-bearing mice; format: in vivo; details: 7-day dosage by single administration, 7 days
Text: During the experiment, the mice were inoculated with S-180 sarcoma cells (×10^7) in armpits. […] Seven days later, the mice were sacrificed by decollation. The tumors were removed, and the mice and the tumors were weighed separately.

[6] = system: HCT116 cells; assay: Antitumor experiment of tumor HCT116-bearing mice; format: in vivo; details: 7-day dosage by single administration, 7 days
Text: During the experiment, the mice were inoculated with HCT116 cells (×10^7) in armpits. […] Seven days later, the mice were sacrificed by decollation. The tumors were removed, and the mice and the tumors were weighed separately.

[7] = system: S-180 cells; assay: Effect on apoptosis of tumor cells, cell cycle by flow cytometry; format: in vivo, mice; details: sarcoma cell cycle, S-180 tumor fluid, 7 days
Text: During the experiment, the mice were inoculated with S-180 cells (×10^7) in armpits. Seven days later, the mice were sacrificed by decollation and the tumors were removed. Tumor fluid was collected from tumors, and used for determining cell cycle by flow cytometry after ethanol fixation.

[8] = 4.6 mg/kg, the values are: sugar water preference

What does the source list for “curcumin decanoate [long acting curcumin]”?
reduced the accumulative immobile time (tail suspension) ([1]; 3 days after administration): 50.7%; reduced the accumulative immobile time (tail suspension) ([1]; 7 days after administration): 59.5%; reduced the accumulative immobile time (tail suspension) ([1]; 14 days after administration): 31.8%; reduced the accumulative immobile time (forced swimming, mice) ([2]; 3 days after administration): 62.1%; reduced the accumulative immobile time (forced swimming, mice) ([2]; 7 days after administration): 74.7%; reduced the accumulative immobile time (forced swimming, mice) ([2]; 14 days after administration): 37.8%; Sugar water volume after stress [3, 8]: 54.1 ± 4.7%; Sugar water volume before stress [3, 8]: 60.2 ± 9.2%; Sugar water volume after stress ([3]; 9.2 mg/kg): 72.8 ± 3.1 %; Sugar water volume before stress ([3]; 9.2 mg/kg, the values are: sugar water preference): 60.4 ± 9.2%; Sugar water volume after stress ([3]; 18.4 mg/kg): 71.6 ± 2.3 %; Sugar water volume before stress ([3]; 18.4 mg/kg, the values are: sugar water preference): 66.8 ± 8.6%; reduced the accumulative immobile time of the forced swimming test ([4]; 4.6 mg/kg once every 7 days): 37.6%; reduced the accumulative immobile time of the forced swimming test ([4]; 9.2 mg/kg once every 7 days): 49.4%; reduced the accumulative immobile time of the forced swimming test ([4]; 18.4 mg/kg once every 7 days): 58.9%; inhibitory rate of tumors ([5]; high dosage group): 50.1%; inhibitory rate of tumors ([5]; low dosage group): 28.5%; inhibitory rate of tumors ([5]; medium dosage group): 57.8%; inhibitory rate of tumors ([6]; high dosage group): 49.3%; inhibitory rate of tumors ([6]; low dosage group): 29.6%; inhibitory rate of tumors ([6]; medium dosage group): 58.4%; APO % (apoptosis level of tumor cells) [7]: 44.7%; G1 % [7]: 64.9%; G2 % [7]: 1.0%; S % [7]: 34.1%
